Measurements from the supplement of paper PMC13380429.

Tests used:
Details in all cases: 72 h
HepG2 [1] = assay: drug sensitivity score (DSS) for viability; higher = more toxic; extreme values may be limits of the assay
Caco-2 [2] = assay: as above
Vero E6 [3] = assay: as above
U2OS [4] = assay: as above
HepG2 [5] = assay: relative viability EC50 (midpoint between 100% and the lowest measured viability); higher = less toxic
Caco-2 [6] = assay: as above
Vero E6 [7] = assay: as above
U2OS [8] = assay: as above
HepG2 [9] = assay: cell viability relative to DMSO; higher = less toxic
Caco-2 [10] = assay: as above
Vero E6 [11] = assay: as above
U2OS [12] = assay: as above
Calu-3 [13] = assay: drug sensitivity score (DSS) for viability; higher = more toxic; extreme values may be limits of the assay
Calu-3 [14] = assay: cell viability relative to DMSO; higher = less toxic
Calu-3 [15] = assay: relative viability EC50 (midpoint between 100% and the lowest measured viability); higher = less toxic

SMILES | drug sensitivity score (HepG2 [1]) | drug sensitivity score (Caco-2 [2]) | drug sensitivity score (Vero E6 [3]) | drug sensitivity score (U2OS [4]) | relative viability EC50 (HepG2 [5]) [µM] | relative viability EC50 (Caco-2 [6]) [µM] | relative viability EC50 (Vero E6 [7]) [µM] | relative viability EC50 (U2OS [8]) [µM] | cell viability (HepG2 [9]; 1 nM) [%] | cell viability (HepG2 [9]; 10 nM) [%] | cell viability (HepG2 [9]; 100 nM) [%] | cell viability (HepG2 [9]; 1000 nM) [%] | cell viability (HepG2 [9]; 10000 nM) [%] | cell viability (Caco-2 [10]; 1 nM) [%] | cell viability (Caco-2 [10]; 10 nM) [%] | cell viability (Caco-2 [10]; 100 nM) [%] | cell viability (Caco-2 [10]; 1000 nM) [%] | cell viability (Caco-2 [10]; 10000 nM) [%] | cell viability (Vero E6 [11]; 1 nM) [%] | cell viability (Vero E6 [11]; 10 nM) [%] | cell viability (Vero E6 [11]; 100 nM) [%] | cell viability (Vero E6 [11]; 1000 nM) [%] | cell viability (Vero E6 [11]; 10000 nM) [%] | cell viability (U2OS [12]; 1 nM) [%] | cell viability (U2OS [12]; 10 nM) [%] | cell viability (U2OS [12]; 100 nM) [%] | cell viability (U2OS [12]; 1000 nM) [%] | cell viability (U2OS [12]; 10000 nM) [%] | drug sensitivity score (Calu-3 [13]) | cell viability (Calu-3 [14]; 1 nM) [%] | cell viability (Calu-3 [14]; 10 nM) [%] | cell viability (Calu-3 [14]; 100 nM) [%] | cell viability (Calu-3 [14]; 1000 nM) [%] | cell viability (Calu-3 [14]; 10000 nM) [%] | relative viability EC50 (Calu-3 [15]) [µM]
Cn1c(-c2ccccc2)nnc1S(C)(=O)=O | 0 | 0 | 0 | 0 | > 10 | > 10 | > 10 | > 10 | 97.4 | 99.1 | 99.1 | 93.9 | 94.5 | 93 | 85.8 | 103 | 103 | 103 | 89.6 | 92.9 | 99.3 | 94.9 | 105 | 99.4 | 96.9 | 96.4 | 99.3 | 103 |  |  |  |  |  |  | 
Cc1nnc(-c2ccc3occ(-c4ccc([S+](C)[O-])cc4)c3c2)o1 (centres undefined) [TCS2002] | 0 | 0 | 0 | 0 | > 10 | > 10 | > 10 | > 10 | 94 | 97.2 | 99.3 | 93 | 112 | 103 | 96.7 | 98.5 | 108 | 108 | 96.1 | 95.9 | 99.1 | 90.6 | 101 | 102 | 103 | 101 | 99.3 | 98.5 |  |  |  |  |  |  | 
N[C@@H]1[C@H]2CN(c3nc4c(cc3F)c(=O)c(C(=O)O)cn4-c3ccc(F)cc3F)C[C@@H]12 [trovafloxacin] | 3.4 | 3.1 | 0 | 0 | 3.6 |  | > 10 | > 10 | 115 | 104 | 102 | 106 | 29.9 | 95.6 | 122 | 84.7 | 85.5 | 71.5 | 95.7 | 98.8 | 102 | 110 | 98.2 | 101 | 108 | 99.8 | 105 | 89.9 | 2.1 | 102 | 103 | 92.4 | 97.6 | 64.1 | 
C[C@]1(Cn2ccnn2)[C@H](C(=O)O)N2C(=O)C[C@H]2S1(=O)=O [tazobactam] | 0 | 0 |  | 0 | > 10 | > 10 |  | > 10 | 107 | 102 | 97.4 | 113 | 107 | 81.7 | 96.4 | 91.3 | 94.6 | 85.4 |  |  |  |  |  | 95.4 | 102 | 98.9 | 100 | 95.6 | 0 | 93.2 | 98.7 | 91.6 | 94.3 | 105 | > 10
C[N+]12CCC(CC1)C(OC(=O)C(O)(c1ccccc1)c1ccccc1)C2 (centres undefined) [clidinium] | 0 | 0 | 0 |  | > 10 | > 10 | > 10 |  | 92.5 | 108 | 90.6 | 104 | 99.7 | 102 | 112 | 106 | 95.4 | 103 | 102 | 102 | 101 | 102 | 99.8 |  |  |  |  |  |  |  |  |  |  |  | 
O=C(O)c1cc(=O)[nH]c(=O)[nH]1 [orotic-acid] | 0 | 0 |  | 0 | > 10 | > 10 |  | > 10 | 106 | 117 | 98.6 | 106 | 100 | 105 | 94.8 | 92.6 | 80 | 102 |  |  |  |  |  | 102 | 101 | 104 | 97.7 | 99.4 | 0 | 103 | 98.7 | 97.6 | 99.6 | 100 | > 10
c1ccc(C(NCc2cccnc2)(c2ccccc2)c2ccccc2)cc1 [UCL-2077] | 0 | 0 |  | 0 | > 10 | > 10 |  | > 10 | 97.4 | 104 | 97.3 | 92.6 | 94.6 | 101 | 103 | 96.7 | 103 | 91.4 |  |  |  |  |  | 96.9 | 98.5 | 101 | 106 | 103 | 0 | 96.7 | 86.1 | 89.6 | 94.2 | 94.8 | > 10
CCCOc1ccc(S(=O)(=O)N2CCN(CCO)CC2)cc1-c1nc2c(CCC)cn(CC)c2c(=O)[nH]1 [mirodenafil] | 0 | 0.1 | 0 | 0 | > 10 | > 10 | > 10 | > 10 | 105 | 98.1 | 108 | 100 | 99.7 | 105 | 111 | 96.5 | 107 | 85.6 | 100 | 101 | 101 | 94.9 | 102 | 102 | 104 | 99.6 | 103 | 96.3 |  |  |  |  |  |  | 
CN[C@@H]1[C@H](O[C@H]2[C@H](O[C@H]3[C@H](O)[C@@H](O)[C@H](NC(=N)N)[C@@H](O)[C@@H]3NC(=N)N)O[C@@H](C)[C@]2(O)CO)O[C@@H](CO)[C@H](O)[C@H]1O [dihydrostreptomycin] | 0 | 0 |  | 0 | > 10 | > 10 |  | > 10 | 109 | 100 | 101 | 105 | 98.5 | 99.2 | 94.3 | 97.6 | 93.8 | 104 |  |  |  |  |  | 102 | 105 | 97.3 | 107 | 97.3 | 0 | 97.8 | 97.1 | 106 | 96.9 | 94.8 | > 10
Nc1c2ccccc2nc2ccccc12 [9-aminoacridine] | 7.2 | 1.1 | 6.6 | 3.6 | 2.14 |  | 1.89 | 3.14 | 93.5 | 96.5 | 99.8 | 88.1 | 5.5 | 103 | 115 | 96.2 | 134 | 60.5 | 106 | 104 | 108 | 86.5 | 20.3 | 94.6 | 98 | 95 | 99.8 | 34.9 | 1.2 | 94.4 | 92.4 | 105 | 110 | 64.6 | 
COC(=O)C1=CO[C@@H](O[C@@H]2O[C@H](CO)[C@@H](O)[C@H](O)[C@H]2O)[C@@H]2C(CO)=CC[C@H]12 [geniposide] | 0 | 0 |  | 0 | > 10 | > 10 |  | > 10 | 104 | 95.5 | 106 | 114 | 92.4 | 99.6 | 94.5 | 93.5 | 95.9 | 93.9 |  |  |  |  |  | 93.9 | 99.4 | 94.9 | 99.5 | 99 | 0 | 84.8 | 98.2 | 91.2 | 96.4 | 98.4 | > 10
Cc1c(-c2ccc(-c3ccccc3F)cc2)nc2ccc(F)cc2c1C(=O)O [brequinar] | 8.3 | 0 | 6.6 | 0 | 0.563 | > 10 |  | > 10 | 105 | 104 | 95.6 | 59.2 | 41.8 | 123 | 93.8 | 93.4 | 105 | 111 | 92.9 | 93.3 | 93.5 | 66.3 | 64.2 | 98.2 | 93.1 | 103 | 103 | 103 | 0 | 96.4 | 93.9 | 101 | 106 | 99.6 | > 10
CCN(CCCOc1ccc2c(Nc3cc(CC(=O)Nc4cccc(F)c4)[nH]n3)ncnc2c1)CCOP(=O)(O)O [barasertib] | 6 | 0.4 | 1.9 | 0 |  | > 10 |  | > 10 | 93.4 | 94.7 | 70.7 | 82.9 | 75 | 99.4 | 99.7 | 79.1 | 102 | 82.9 | 94.3 | 96.9 | 101 | 93.7 | 74.2 | 101 | 101 | 98 | 100 | 89.7 | 0 | 112 | 94.2 | 102 | 92.2 | 91.3 | > 10
CN(C)CCN(Cc1ccccc1)c1ccccn1 [tripelennamine] | 1.8 |  | 0 |  | > 10 |  | > 10 |  | 108 | 111 | 101 | 89.7 | 78.9 |  |  |  |  |  | 110 | 110 | 105 | 102 | 97.1 |  |  |  |  |  |  |  |  |  |  |  | 
CNC1CCCN(c2c(F)cc3c(=O)c(C(=O)O)cn(C4CC4)c3c2OC)C1 (centres undefined) [balofloxacin] | 0 | 0 |  | 0 | > 10 | > 10 |  | > 10 | 114 | 97.5 | 93.1 | 104 | 104 | 105 | 98.3 | 98.4 | 93.3 | 99.9 |  |  |  |  |  | 113 | 102 | 97.5 | 103 | 93.2 | 0 | 104 | 94.8 | 101 | 97.7 | 102 | > 10
CCOC(=O)CSCCC1NC(C(=O)O)CS1 (centres undefined) [letosteine] | 0 | 0 | 1.1 | 0 | > 10 | > 10 |  | > 10 | 80.5 | 96.4 | 98.7 | 95.6 | 92.9 | 90.8 | 80.7 | 97.4 | 97.9 | 75.5 | 75.4 | 102 | 74.4 | 98.3 | 93.3 | 101 | 102 | 107 | 99.6 | 103 | 0 | 97.6 | 97.1 | 116 | 96.9 | 101 | > 10
